Laboratory results as given in patent publication US20250115569A1, “SULFONAMIDE COMPOUNDS FOR THE TREATMENT OF NEUROLOGICAL CONDITIONS” (LARIO THERAPEUTICS LIMITED, priority 2021, published 2025).

Test system: Human Cav2.3 channel
Assay: Human Cav2.3 channel calcium-influx assay
Type: cell-based
Conditions: Fluo8 fluorescence, HEK-293 T-Rex/Kir2.1/Cav2.3e cells, without pluronic acid
Procedure: HEK-293 T-Rex cells were transfected with pcDNA3.1-Kir2.1 to generate a stable cell line. After antibiotic selection, the obtained stable pools were analysed using FLIPR^TETRA (membrane potential assay), and a limiting dilution was performed and a HEK-293 T-Rex/Kir2.1 clone was selected. The clone was transfected with pcDNA3.1-Cav2.3e and pBud-Cav-β4-α2δ1 to generate a stable cell line where the Cav2.3e expression is inducible. After antibiotic selection, functional clone pool analysis and two successive limiting dilutions, the final clone underwent a qPCR analysis and a biophysical and pharmacological validation using patch-clamp.
A compound plate, containing 10 test compounds in eight-points dose response with n=4, was prepared. Test compounds dose response curves were prepared in automated fashion in 100% DMSO at CyBio Felix and starting from a stock solution in 100% DMSO; a defined volume was serially moved into destination wells pre-filled with the desired DMSO volume; stock solution concentration volumes were dependent on the final compounds concentrations to be tested and the final DMSO content used in the assay. For the assay test compounds dose response curves ranged from 30 μM and half log dilution with 0.3% final DMSO. In order to obtain the 8-points dose response curve all the concentrations were created by starting from a 10 mM DMSO stock solution and then moving 9.5 μL into a destination well pre-filled with 20.5 μL of 100% DMSO and repeating this step seven times. This initial step was done into 96 MTP plates, 10 compounds/plate. One 384 MTP was then reformatted to contain all the 10 compounds at 8 concentrations, quadruplicate data points. This so obtained 384 MTP compound plate served as source plate in a “mother to child” process with a CyBi®-Well dispenser in which 0.7 μL of compounds were moved into a destination plate pre-filled with 57.6 μL of Tyrode's buffer 0 mM K+, thus obtaining 4× concentrated compounds solution. In columns 1-2 and 23-24 the control wells were added. Both “source” compound plate and “destination” compound plate were barcoded and a relationship between the two plates was thus generated.
The day before the experiment, cells were detached by gentle wash with DPBS, followed by 5 min incubation at 37° C. with Trypsin solution. Detached cells were diluted with OptiMEM+Doxycycline at 0.2 μg/mL, counted and plated in Poly-D-Lysine coated black/clear bottom (15.000 c/well in 20 μl/well) by the use of a MATRIX WellMate dispenser. Plates were placed into a humidified incubator at 37° C. with 5% CO2 until the experimental day. 24 h after seeding 10 μL/well of 1.5× Fluo8 NW dye solution prepared in Tyrode's buffer 0 mM K* were added on top of the seeding medium. Cell plates were incubated for 40-60 min at RT in the dark. We then Injected off-line 10 μL/well of test compounds and controls 4× concentrated in Tyrode's Buffer 0 mM K+ with the CyBi®-Well instrument. Cell plates were incubated 3 minutes at RT. Finally, we injected 20 μL/well of 3× concentrated activator solution (K20-Na130-Ca2 buffer: 20 mM KCl, 130 mM NaCl, 2 mM CaCl2, 10 mM HEPES, 10 mM Glucose, final concentrations, prepared starting from “K0-Na150-Ca2” and “K150-Na0-Ca2” buffers) at FDSS7000EX instrument and read emitted fluorescence for 130 seconds.
Data analysis was performed with Genedata Screener® software and reported compounds activity as % effect in relation to the normalization standards. The Kinetic Response Value (KRV) is calculated as follows:
KRV=Maximal fluorescence recorded from second 5 to second 130 minus baseline fluorescence, computed as average from second 1 to second 2, of the kinetic trace. The KRV was normalized versus Neutral Controls and Inhibitor Controls in order to obtain the Activity[%] for each well. […] Therefore, the compound activity values were scaled (based on the two references) to a common range (two-point normalization). […]

SMILES: CCN([C@@H](c1ccc(F)cc1)C(F)(F)F)S(=O)(=O)c1cncc(N2CCCC2)c1 [Example 97, (S)—N-ethyl-5-(pyrrolidin-1-yl)-N-(2,2,2-trifluoro-1-(4-fluorophenyl)ethyl)pyridine-3-sulfonamide]
- Cav2.3 (pIC50): 5.22

SMILES: CCN([C@@H](c1ccc(F)c(C)c1)C(F)(F)F)S(=O)(=O)c1cncc(C#N)c1 [Example 245, (S)-5-cyano-N-ethyl-N-(2,2,2-trifluoro-1-(4-fluoro-3-methylphenyl)ethyl)pyridine-3-sulfonamide]
- Cav2.3 (pIC50): 5.70

SMILES: Cc1ccc(S(=O)(=O)N(C)[C@@H](c2ccc(F)cc2)C(F)(F)F)s1 [Example 12, (S)—N,5-dimethyl-N-(2,2,2-trifluoro-1-(4-fluorophenyl)ethyl)thiophene-2-sulfonamide]
- Cav2.3 (pIC50): 5.00

SMILES: CCN(C(c1ccc(F)cc1)C(F)(F)F)S(=O)(=O)C1CCOCC1 (stereo not drawn) [Example 61, N-ethyl-N-(2,2,2-trifluoro-1-(4-fluorophenyl)ethyl)tetrahydro-2H-pyran-4-sulfonamide]
- Cav2.3 (pIC50): 7.01

SMILES: CCN([C@H](c1ccc(F)cc1)C(F)(F)F)S(=O)(=O)c1ccc2nncn2n1 [Example 192, (R)—N-ethyl-N-(2,2,2-trifluoro-1-(4-fluorophenyl)ethyl)-[1,2,4]triazolo[4,3-b]pyridazine-6-sulfonamide]
- Cav2.3 (pIC50): 6.18

SMILES: CCN(C(c1ncc(C)s1)C(F)(F)F)S(=O)(=O)c1cncc(C#N)c1 (stereo not drawn) [Example 264, 5-Cyano-N-ethyl-N-(2,2,2-trifluoro-1-(5-methylthiazol-2-yl)ethyl)pyridine-3-sulfonamide]
- Cav2.3 (pIC50): 4.96

SMILES: CCN(C(c1ccc(F)cc1)C(F)(F)F)S(=O)(=O)c1ccc2c(c1)OCC2 (stereo not drawn) [Example 39, N-ethyl-N-(2,2,2-trifluoro-1-(4-fluorophenyl)ethyl)-2,3-dihydrobenzofuran-6-sulfonamide]
- Cav2.3 (pIC50): 5.82

SMILES: CCN(C(c1ccc(F)cc1)C(F)(F)F)S(=O)(=O)c1cncnc1 (stereo not drawn) [Example 57, N-ethyl-N-(2,2,2-trifluoro-1-(4-fluorophenyl)ethyl)pyrimidine-5-sulfonamide]
- Cav2.3 (pIC50): 6.96

SMILES: CCN([C@@H](c1cccc(C)c1)C(F)(F)F)S(=O)(=O)c1cncc(C#N)c1 [Example 115, (S)-5-cyano-N-ethyl-N-(2,2,2-trifluoro-1-(m-tolyl)ethyl)pyridine-3-sulfonamide]
- Cav2.3 (pIC50): 5.44

SMILES: CN([C@H](c1ccc(C(F)(F)F)cc1)C(F)(F)F)S(=O)(=O)c1ccc2ncc(Cl)n2c1 [Example 233, (R)-3-chloro-N-methyl-N-(2,2,2-trifluoro-1-(4-(trifluoromethyl)phenyl)ethyl)imidazo[1,2-a]pyridine-6-sulfonamide]
- Cav2.3 (pIC50): 5.91

SMILES: CCN(C(c1ccc(F)cc1)C(F)(F)F)S(=O)(=O)c1cnc(C)nc1 (stereo not drawn) [Example 75, N-ethyl-2-methyl-N-(2,2,2-trifluoro-1-(4-fluorophenyl)ethyl)pyrimidine-5-sulfonamide]
- Cav2.3 (pIC50): 5.94

SMILES: CCN([C@H](c1cccc(F)c1)C(F)(F)F)S(=O)(=O)c1cncc(C#N)c1 [Example 111, (R)-5-Cyano-N-ethyl-N-(2,2,2-trifluoro-1-(3-fluorophenyl)ethyl)pyridine-3-sulfonamide]
- Cav2.3 (pIC50): 7.63

SMILES: CN([C@H](c1ccc(F)cc1)C(F)(F)F)S(=O)(=O)C1CCOCC1 [Example 132, (R)—N-methyl-N-(2,2,2-trifluoro-1-(4-fluorophenyl)ethyl)tetrahydro-2H-pyran-4-sulfonamide]
- Cav2.3 (pIC50): 6.05

SMILES: CCN(C(c1ccc(F)cc1)C(F)(F)F)S(=O)(=O)c1cncc(N2CCCC2)c1 (stereo not drawn) [Example 94, N-ethyl-5-(pyrrolidin-1-yl)-N-(2,2,2-trifluoro-1-(4-fluorophenyl)ethyl)pyridine-3-sulfonamide]
- Cav2.3 (pIC50): 5.85

SMILES: CCN(C(c1ccc(F)cc1)C(F)(F)F)S(=O)(=O)c1ccc(F)s1 (stereo not drawn) [Example 14, N-ethyl-5-fluoro-N-(2,2,2-trifluoro-1-(4-fluorophenyl)ethyl)thiophene-2-sulfonamide]
- Cav2.3 (pIC50): 5.64

SMILES: CCN([C@H](c1ccc(F)cc1)C(F)(F)F)S(=O)(=O)c1csc(C#N)c1 (stereo in doubt) [Example 43, 5-Cyano-N-ethyl-N-(2,2,2-trifluoro-1-(4-fluorophenyl)ethyl)thiophene-3-sulfonamide]
- Cav2.3 (pIC50): 6.69

SMILES: CCN([C@@H](c1ccc(F)c(F)c1)C(F)(F)F)S(=O)(=O)c1cncc(C#N)c1 [Example 249, (S)-5-cyano-N-(1-(3,4-difluorophenyl)-2,2,2-trifluoroethyl)-N-ethylpyridine-3-sulfonamide]
- Cav2.3 (pIC50): 5.73

SMILES: CN([C@H](c1ccc(Cl)cc1)C(F)F)S(=O)(=O)c1cncc(C#N)c1 [Example 206, (R)—N-(1-(4-chlorophenyl)-2,2-difluoroethyl)-5-cyano-N-methylpyridine-3-sulfonamide]
- Cav2.3 (pIC50): 6.60

SMILES: CCN(C(c1ccc(F)cc1)C(F)(F)F)S(=O)(=O)c1ccc(C2CCOCC2)s1 (stereo not drawn) [Example 88, N-ethyl-5-(tetrahydro-2H-pyran-4-yl)-N-(2,2,2-trifluoro-1-(4-fluorophenyl)ethyl)thiophene-2-sulfonamide]
- Cav2.3 (pIC50): 5.60

SMILES: CCN([C@H](c1ccc(F)cc1)C(F)(F)F)S(=O)(=O)c1cnc2cc[nH]c2c1 [Example 149, (R)—N-ethyl-N-(2,2,2-trifluoro-1-(4-fluorophenyl)ethyl)-1H-pyrrolo[3,2-b]pyridine-6-sulfonamide]
- Cav2.3 (pIC50): 6.61

SMILES: CCN([C@H](c1ccc(F)cc1)C(F)(F)F)S(=O)(=O)c1cc2nncn2cn1 [Example 152, (R)—N-ethyl-N-(2,2,2-trifluoro-1-(4-fluorophenyl)ethyl)-[1,2,4]triazolo[4,3-c]pyrimidine-7-sulfonamide]
- Cav2.3 (pIC50): 6.51

SMILES: CCN(C(c1ccc(F)cc1)C(F)(F)F)S(=O)(=O)c1ccc2c(c1)COC2 (stereo not drawn) [Example 36, N-ethyl-N-(2,2,2-trifluoro-1-(4-fluorophenyl)ethyl)-1,3-dihydroisobenzofuran-5-sulfonamide]
- Cav2.3 (pIC50): 6.58

SMILES: CN([C@H](c1ccc(F)cc1)C(F)(F)F)S(=O)(=O)c1ccc2c(c1)OC(F)(F)O2 [Example 163, (R)-2,2-difluoro-N-methyl-N-(2,2,2-trifluoro-1-(4-fluorophenyl)ethyl)benzo[d][1,3]dioxole-5-sulfonamide]
- Cav2.3 (pIC50): 5.76

SMILES: CCNc1nc2ccc(S(=O)(=O)N(CC)[C@H](c3ccc(F)cc3)C(F)(F)F)cc2s1 [Example 139, (R)—N-ethyl-2-(ethylamino)-N-(2,2,2-trifluoro-1-(4-fluorophenyl)ethyl)benzo[d]thiazole-6-sulfonamide]
- Cav2.3 (pIC50): 6.31

SMILES: CCN([C@@H](c1ccc(F)cc1)C(F)(F)F)S(=O)(=O)c1csc(C#N)c1 (stereo in doubt) [Example 44, 5-cyano-N-ethyl-N-(2,2,2-trifluoro-1-(4-fluorophenyl)ethyl)thiophene-3-sulfonamide]
- Cav2.3 (pIC50): 5.23

SMILES: Cc1ccc([C@@H](N(C)S(=O)(=O)c2cncnc2)C(F)(F)F)cc1 [Example 226, (R)—N-methyl-N-(2,2,2-trifluoro-1-(p-tolyl)ethyl)pyrimidine-5-sulfonamide]
- Cav2.3 (pIC50): 6.79

SMILES: CCN([C@H](c1ccc(F)cc1)C(F)(F)F)S(=O)(=O)c1cccc(C)n1 [Example 33, (R)—N-ethyl-6-methyl-N-(2,2,2-trifluoro-1-(4-fluorophenyl)ethyl)pyridine-2-sulfonamide]
- Cav2.3 (pIC50): 6.30
